Reference: patent US20020099098A1, “Method for treating sexual disorders” (priority 2001, published 2002)

Tested on: patients
Assay: randomised placebo-controlled double-blind study of deramciclane
Assay type: in vivo
Details: for number of patients with decreased libido: placebo 2 out of 51, p=0.04, Chi-square-test
Method: The effects of deramciclane were studied in a randomised placebo-controlled double-blind study. The subjects were randomly assigned to four parallel groups to receive one tablet twice daily (b.i.d) of a placebo, 5 mg (=10 mg/day), 15 mg (=30 mg/day), or 30 mg (=60 mg/day) deramciclane.
When analyzing the number of patients with decreased libido, 2 out of 51 patients on placebo experienced it, but none of the patients treated with deramciclane 15 mg b.i.d. (n=53) or 30 mg b.i.d.(n=54) experienced decreased libido (p=0.04, Chi-square-test). In addition, when the Udvalg for Kliniske Undersogelser (UKU) scale was used, 21% of 53 patients experienced orgastic dysfunction at the baseline but only 12% of them after 8-week treatment with deramciclane 15 mg b.i.d.

CN(C)CCO[C@]1(c2ccccc2)C[C@H]2CC[C@]1(C)C2(C)C [deramciclane, (1R,2S,4R)-(−)-2-phenyl 2-(dimethylaminoethoxy)-1,7,7-trimethyl-bicyclo[2.2.1]heptane]
patients experiencing orgastic dysfunction (UKU scale) (after 8-week treatment with deramciclane 15 mg b.i.d., baseline 21% of 53 patients): 12% | number of patients with decreased libido (deramciclane 15 mg b.i.d. (=30 mg/day), n=53): none | number of patients with decreased libido (deramciclane 30 mg b.i.d. (=60 mg/day), n=54): none
